Reference: US20180235993A1 (priority 2000, published 2018)

Tests used:
[1] = tested on: BVDV (NADL strain); assay: Yield Reduction Assay; type: cell-based, Bovine Viral Diarrhea virus
Experimental: The assay was performed as described by Baginski, S. G.; Pevear, D. C.; Seipel, M.; Sun, S. C. C.; Benetatos, C. A.; Chunduru, S. K.; Rice, C. M. and M. S. Collett “Mechanism of action of a pestivirus antiviral compound” PNAS USA 2000, 97(14), 7981-7986, with minor modifications. Briefly, MDBK cells were seeded onto 24-well plates (2×10^5 cells per well) 24 hours before infection with BVDV (NADL strain) at a multiplicity of infection (MOI) of 0.1 PFU per cell. Serial dilutions of test compounds were added to cells in a final concentration of 0.5% DMSO in growth medium. Each dilution was tested in triplicate. After three days, cell cultures (cell monolayers and supernatants) were lysed by three freeze-thaw cycles, and virus yield was quantified by plaque assay. Briefly, MDBK cells were seeded onto 6-well plates (5×10^5 cells per well) 24 h before use. Cells were inoculated with 0.2 mL of test lysates for 1 hour, washed and overlaid with 0.5% agarose in growth medium. After 3 days, cell monolayers were fixed with 3.5% formaldehyde and stained with 1% crystal violet (w/v in 50% ethanol) to visualize plaques. FIG. 9 is a graphical illustration of the results from the Yield Reduction Assay. FIG. 8 is an image of BVDV yield reduction in the presence of increasing concentrations of β-D-2′-CH3-riboC.

[2] = Cytotoxicity assay (sulforhodamine B, CC50), Human Hepatoma; type: cell-based; conditions: human, Huh7 cells (human hepatoma); Table 13; Huh7 cells
Experimental: Cells were seeded at a rate of between 5×10^3 and 5×10^4/well into 96-well plates in growth medium overnight at 37° C. in a humidified CO2 (5%) atmosphere. New growth medium containing serial dilutions of the drugs was then added. After incubation for 4 days, cultures were fixed in 50% TCA and stained with sulforhodamineB. The optical density was read at 550 nm. The cytotoxic concentration was expressed as the concentration required to reduce the cell number by 50% (CC50).

[3] = tested on: YFV-17D; assay: microbe, parasite or virus in culture; type: cell-based, Yellow fever virus vaccine strain 17D; conditions: Yellow fever virus, read-out: YFV EC50

With `CC1(O)[C@@H](O)[C@@H](CO)O[C@H]1n1cnc2c(=O)[nH]c(N)nc21` (stereo partly drawn) [β-D-2′-CH3-riboG] the “Conc. for 6-log Reduction” value [1] was 20 μM, the “Yield Reduction 6 log10 reduction (μM)” value [1] was 20 μM and the “reduction in yield reduction assay” value [1] was 4 log. The EC90 ([1]; Bovine viral diarrhea virus isolates and strains, Table 13, BVDV) was 3000 nM, the EC50 at 4 days [2] was greater than 250 µM and the EC50 [3] was 1200 nM.
